In patent US20240127967A1:
Values joined by “and” are separate entries in the source; they are usually repeats but may differ in a detail not shown here. Identical values can stand only once. “Also recorded” adds a separate entry of the source. Like-named read-outs stand apart in the source and are kept apart here.

Assays:
EBOV [1] = conditions: read-out: IC50 (HepG2); cited from earlier work
MARV = conditions: mouse, in vivo; cited from earlier work
in vivo = conditions: mouse, ip, 12 mg/kg
EBOV [2] = conditions: mouse, in vivo; cited from earlier work
EBOV/Mak [3] = conditions: cited from earlier work
[4] = Pharmacokinetic modeling of human oral PK data (Monolix); set-up: species or system humans; conditions: for V: fitted PK model parameter (volume of plasma/serum compartment); for k: fitted elimination rate
[5] = State of V8 preparations after storage at 4° C.; type: physicochemical; conditions: stored at 4° C.
[6] = Tolerability of drugs in V8 in mice; conditions: in V8, once daily PO, eleven consecutive days; bepridil 500, toremifene 200, sertraline 60 and 100 mg/kg
[7] = Solubility in ten test vehicles; conditions: for solubility in Vehicle #9: 3% NMP/45% PEG300/12% ethanol/40% sterile water; for solubility in Vehicle #9 / solubility in Vehicle #7 / solubility in Vehicle #6 / solubility in Vehicle #10 / solubility in Vehicle #8 / solubility in Vehicle #5 / solubility in Vehicle #4 / solubility in Vehicle #3: Bepridil 25, Sertraline 3, toremifene 8.4 mg/ml; for solubility in Vehicle #7: 5% NMP/95% PEG 300; for solubility in Vehicle #6: 10% Solutol/90% PEG 400; for solubility in Vehicle #2: 20% Captisol in water; for solubility in Vehicle #2 / solubility in Vehicle #1: Bepridil 25 mg/ml, Sertraline 3 mg/ml, toremifene 8.4 mg/ml; for solubility in Vehicle #10: 40% Propylene Glycol/30% Solutol HS 15/30% Sterile Water; for solubility in Vehicle #8: 80% PEG 400/20% of 0.1% Tween-20 in Water; for solubility in Vehicle #1: Aqueous Suspension Vehicle; for solubility in Vehicle #5: PEG 400; for solubility in Vehicle #4: Vegetable Oil; for solubility in Vehicle #3: […] PEG 400/[…] Tween 20/25% Capmul MCM NF
VSV-EBOV-GPΔ-Luc = type: cell-based, VSV pseudovirus bearing EBOV GP
[8] = female, C57BL/6, mouse, in vivo; for Cmax: po
[9] = in vivo, cited from earlier work
EBOV/Mak [10] = assay: microbe, parasite or virus in culture; type: cell-based, Ebola virus; conditions: for IC50: Zaire ebolavirus
EBOV [11] = tested on: EBOV; set-up: species or system mice; conditions: mouse, in vivo
EBOV/Mak-005 = conditions: rhesus monkey, in vivo; cited from earlier work
[12] = Huh-7, read-out: IC50 (average)

CC(C)COCC(CN(Cc1ccccc1)c1ccccc1)N1CCCC1 (stereo not shown) [Bepridil]
IC50 (EBOV [1]): 3.21 µM
Survival (%) (MARV): 90 ^4%
Cmax (in vivo): 3.3 µM
Survival (%) (EBOV [2]): 100% and 100 ^3%
single drug effect (Ebola virus): exceeds 80%
Hill coefficient (EBOV/Mak [3]): 4.859
IC50 (EBOV/Mak [3]; read-out: IC50 (Huh7)): 5.86 µM
IC50 (EBOV/Mak [3]; read-out: IC50): 5.86 µM
Tk0 ([4]; fitted PK model parameter): 0.0873 days
k12 ([4]; fitted PK model parameter): 6.71 per day
k21 ([4]; fitted PK model parameter): 1.61 per day
V [4]: 25.2
k [4]: 0.348 per day
state of preparation in Vehicle 8 when removed from the refrigerator [5]: always solid (as if it had frozen) and contained precipitate
tolerability in mice [6]: well tolerated
solubility in Vehicle #9 [7]: Clear solution
solubility in Vehicle #7 [7]: Clear solution
solubility in Vehicle #6 [7]: Clear solution
solubility in Vehicle #2 [7]: Slightly hazy
solubility in Vehicle #10 [7]: Clear solution
solubility in Vehicle #8 [7]: Clear solution
solubility in Vehicle #1 [7]: Suspension
solubility in Vehicle #5 [7]: Clear solution
solubility in Vehicle #4 [7]: Clear solution
solubility in Vehicle #3 [7]: Clear solution
stability of inhibitory activity of stock in V8 (VSV-EBOV-GPΔ-Luc): maintained inhibitory activity over 15 days
Cmax obtained relative to prediction, fold higher [8]: ~1.8 fold
Cmax [8]: ~3000 nM
peak concentration [9]: 3.63 (±1.48) μM
trough concentration [9]: 2.60 (±1.21) μM
possible loss of potency on storage in V8 (EBOV/Mak [10]): < 2 fold
IC50 (EBOV/Mak [10]; Huh-7): 4.5 µM
IC50 (EBOV/Mak [10]; [12]): 4.53 µM

CN(C)CCOc1ccc(/C(=C(/CCCl)c2ccccc2)c2ccccc2)cc1 [Toremifene]
IC50 (EBOV [1]): 0.03 µM
Survival (%) (EBOV [2]): 50% and 50 ^ %
Hill coefficient (EBOV/Mak [3]): 3.057
IC50 (EBOV/Mak [3]; read-out: IC50 (Huh7)): 3.64 µM
IC50 (EBOV/Mak [3]; read-out: IC50): 3.64 µM
k12 ([4]; fitted PK model parameter): 4.28 per day
k21 ([4]; fitted PK model parameter): 0.992 per day
V [4]: 354
ka ([4]; fitted absorption rate): 16.6 per day
k [4]: 0.000198 per day
state of preparation in Vehicle 8 when removed from the refrigerator [5]: no precipitates, not solid
tolerability in mice [6]: well tolerated
solubility in Vehicle #9 [7]: Clear solution
solubility in Vehicle #7 [7]: Clear solution
solubility in Vehicle #6 [7]: Suspension
solubility in Vehicle #2 [7]: Clear solution
solubility in Vehicle #10 [7]: Insoluble
solubility in Vehicle #8 [7]: Clear solution
solubility in Vehicle #1 [7]: Suspension
solubility in Vehicle #5 [7]: Suspension
solubility in Vehicle #4 [7]: Non-
solubility in Vehicle #3 [7]: Suspension
stability of inhibitory activity of stock in V8 (VSV-EBOV-GPΔ-Luc): began to lose activity after about 1 week
Cmax obtained relative to prediction, fold lower [8]: ~1.4 fold
Cmax [8]: ~4400 nM
approximated protection of infected mice (EBOV [11]): ~50%
reasoned survival (EBOV [11]): ~7%
estimated survival (EBOV [11]; po, 200 mg/kg): ~50%
peak concentration [9]: 1.18 (±0.42) μM
trough concentration [9]: 0.29 µM
IC50 (EBOV/Mak [10]; [12]): 1.83 µM

O=C1CCc2ccc(OCCCCN3CCN(c4cccc(Cl)c4Cl)CC3)cc2N1 [Aripiprazole]
Survival (%) (EBOV [2]): 10 ^1%
adverse effect in treated infected mice (EBOV [2]): ^1 Mice became extremely somnolent, thwarting eating and drinking, which likely contributed to low survival.

CN[C@H]1CC[C@@H](c2ccc(Cl)c(Cl)c2)c2ccccc21 [Sertraline]
Survival (%) (EBOV [2]): 70% and 70 ^ %
Hill coefficient (EBOV/Mak [3]): 1.628
Tlag ([4]; fitted PK model parameter): 0.0976 days
V [4]: 909
state of preparation in Vehicle 8 when removed from the refrigerator [5]: no precipitates, not solid
tolerability in mice [6]: well tolerated
solubility in Vehicle #9 [7]: Clear solution
solubility in Vehicle #7 [7]: Clear solution
solubility in Vehicle #6 [7]: Clear solution
solubility in Vehicle #2 [7]: Clear solution
solubility in Vehicle #10 [7]: Clear solution
solubility in Vehicle #8 [7]: Clear solution
solubility in Vehicle #1 [7]: Suspension
solubility in Vehicle #5 [7]: Clear solution
solubility in Vehicle #4 [7]: Clear solution
solubility in Vehicle #3 [7]: Clear solution
Cmax obtained relative to prediction, fold higher [8]: ~1.2 fold
Cmax [8]: ~1200 nM
efficacy in macaques (EBOV/Mak-005): not effective; also recorded: did not protect

O=C(Nc1ncc([N+](=O)[O-])s1)c1ccccc1O [tizoxanide]
peak concentration [9]: 17.34 (±13.61)
trough concentration [9]: 3.02 (±7.43)

CCC(CC)COC(=O)[C@H](C)N[P@](=O)(OC[C@H]1O[C@@](C#N)(c2ccc3c(N)ncnn23)[C@H](O)[C@@H]1O)Oc1ccccc1 [remdesivir]
baseline efficacy (SARS-CoV-2): 60%
median t1/2 [9]: ≈ 1 hour
peak concentration [9]: 5.34 (±0.03) μM
time of peak concentration [9]: 1.03 (±0.01) hour

Cc1cccc(/C=N/Nc2cc(N3CCOCC3)nc(OCCc3ccccn3)n2)c1 [Apilimod]
IC50 (EBOV/Mak [3]; read-out: IC50 (Huh7)): 0.17 µM
Cmax ([9]; human, po): 260 nM

CC(=O)c1ccc2c(c1)N(CCCN1CCC(CCO)CC1)c1ccccc1S2 [piperacetazine, Piperacetazine]
IC50 (EBOV [1]): 3.3 µM
IC50 (EBOV/Mak [3]; read-out: IC50 (Huh7)): 7.58 µM

CC[C@H]1OC(=O)[C@H](C)[C@@H](O[C@H]2C[C@@](C)(OC)[C@@H](O)[C@H](C)O2)[C@H](C)[C@@H](O[C@@H]2O[C@H](C)C[C@H](N(C)C)[C@H]2O)[C@](C)(O)C[C@@H](C)CN(C)[C@H](C)[C@@H](O)[C@]1(C)O [Azithromycin]
Survival (%) (EBOV [2]): 10, 30, 60 ^2%
IC50 (EBOV/Mak [3]; read-out: IC50 (Huh7)): 10.8 µM

CCOC(=O)c1c(CSc2ccccc2)n(C)c2cc(Br)c(O)c(CN(C)C)c12 [arbidol]
baseline efficacy (SARS-CoV-2): 36%
peak concentration [9]: 0.77 (±0.23) μM
trough concentration [9]: 0.32 (±0.09) μM
